How the values were obtained:
[1] = biological target: T1, hemichannel activity in HCMVEC cells (Homo sapiens, UniProt P17302); experiment: Whole-cell voltage clamp, hCMVEC cells; format: cell-based; details: for hemichannel activity: 50 μM
T1 construct: isolated human cerebral microvascular endothelial cells (hCMVEC); endogenous in cells; host or cells: hCMVEC
Procedure: Whole-cell voltage clamp studies were conducted on connexin deficient HeLa cells, Connexin43 transfected HeLa cells and isolated human cerebral microvascular endothelial cells (hCMVEC).
HCMVEC Cells were placed into an extracellular artificial cerebral spinal fluid solution containing (in mM): 144 NaCl, 3.3 KCl, 1.8 CaCl2, 1.8 MgCl2, 10 mM glucose, pH: 7.385 at temperature 37° C. The intracellular pipette solution contained (in mM): 130 KCl, 10 sodium aspartate, 0.26 CaCl2, 2 EGTA, 5 tetraethylammonium-Cl, 1 MgCl2,3 MgATP, 5 Hepes at pH 7.2; and was kept on ice to prevent MgATP breakdown. Pipette resistance was 3.4MΩ with seal resistance=1.3 GΩ. Voltage and perfusion protocols are conducted simultaneously, with cells continuously perfused. Recordings for analysis were taken before Tonabersat perfusion, during and after washout. For channel block studies, 50 μM Tonabersat was washed in for three mins prior to recording, and subsequently washed out three mins before taking the washout recordings.

[2] = tested on: Cx43 hemichannel and pannexin channel mediated ATP release from hCMVEC cells; experiment: In vitro ischaemia injury ATP assay; format: cell-based, human; details: for ATP release, percentage of the injury control: 2-hour injury
Procedure: (§1) Using an in vitro ischemia injury model, the Cx43 hemichannel and pannexin channel mediated ATP release was differentiated using the connexin hemichannel blocking mimetic peptide5 at 100 μM concentration (S. J. O'Carroll, et al., Cell communication & adhesion 15, 27 (May, 2008)) and 1 mM Probenecid (W. R. Silverman et al., The Journal of biological chemistry 284, 18143 (Jul. 3, 2009)).
Human cerebral microvascular endothelial cells (hCMVEC) were trypsinised (TrypLE Express, Life technologies) and plated at a density of 0.025×10^6 cells per well in a collagen-coated 12-well plate (1 μg/cm2) a day prior to the experiment. Cells were incubated in culture medium overnight. Hypoxic, acidic, ion-shifted Ringer injury solution that mimics ionic concentrations and acid-base shifts of the interstitial space in hypoxic-ischemic brains (A. Bondarenko, et al., Glia 34, 143 (Apr. 15, 2001)) was used to trigger hemichannel opening. The injury solution (in mM): 38 NaCl, 13 NaHCO3, 3 Na-gluconate, 65 K-gluconate, 38 NMDG-Cl, 1 NaH2PO4, 1.5 MgCl2, was bubbled in N2 gas (>99% purity, 20 L/min) for 5 minutes and pH adjusted to 6.6 using 5 M HCl. Control solution that mimics physiological conditions contained (in mM): 124 NaCl, 3 KCl, 26 NaHCO3, […], 1 NaH2PO4, 1.3 CaCl2, 1.5 MgCl2, and 10 Glucose, and pH 7.4 was adjusted using 5 M HCl (Bondarenko, 2001). […] Following a 2-hour injury the solutions were immediately placed on ice. In the injury and reperfusion model, hCMVEC cells were incubated in 500 μL of normal solution or injury solution for 2 hours at 37° C. in 95% O2 and 5% CO2. Following 2 hour injury, the solutions were discarded and replaced with 500 μL of the normal solution, or Tonabersat (10 μM) dissolved in normal solution, and were incubated for 2 hours at 37° C. in 95% O2 and 5% CO2. These solutions were also then immediately placed on ice. Peptide5 (100 μM)+/−Probenecid (1 mM) were used as controls for both injury and injury-reperfusion models. ATP concentration in the samples was determined using a Luciferin/luciferase bioluminescence reaction (ATP Determination Kit, Molecular Probes) and detected using a luminescence plate reader (VICTOR X, Perkin Elmer #2030-0010). Standard curves were generated in each experiment from an ATP standard (500 nM) to quantify the concentration of ATP in the test samples. The data is presented as mean±standard error relative to the injury or injury-reperfusion control. Statistically significant differences between samples were identified using one-way analysis of variance and Tukey's multiple comparisons test.

[3] = tested on: Cx43 hemichannel and pannexin channel mediated ATP release from hCMVEC cells; experiment: In vitro ischaemia injury-reperfusion ATP assay; format: cell-based, human; details: 2-hour injury then 2-hour reperfusion; 100 μM CBX, 100 μM Peptide5, 1 mM Probenecid, 10 μM Tonabersat
Procedure: as §1
Human cerebral microvascular endothelial cells (hCMVEC) were trypsinised (TrypLE Express, Life technologies) and plated at a density of 0.025×10^6 cells per well in a collagen-coated 12-well plate (1 μg/cm2) a day prior to the experiment. Cells were incubated in culture medium overnight. Hypoxic, acidic, ion-shifted Ringer injury solution that mimics ionic concentrations and acid-base shifts of the interstitial space in hypoxic-ischemic brains (A. Bondarenko, et al., Glia 34, 143 (Apr. 15, 2001)) was used to trigger hemichannel opening. […] ATP concentration in the samples was determined using a Luciferin/luciferase bioluminescence reaction (ATP Determination Kit, Molecular Probes) and detected using a luminescence plate reader (VICTOR X, Perkin Elmer #2030-0010). Standard curves were generated in each experiment from an ATP standard (500 nM) to quantify the concentration of ATP in the test samples. […]

T1 sequence (P17302 2-382): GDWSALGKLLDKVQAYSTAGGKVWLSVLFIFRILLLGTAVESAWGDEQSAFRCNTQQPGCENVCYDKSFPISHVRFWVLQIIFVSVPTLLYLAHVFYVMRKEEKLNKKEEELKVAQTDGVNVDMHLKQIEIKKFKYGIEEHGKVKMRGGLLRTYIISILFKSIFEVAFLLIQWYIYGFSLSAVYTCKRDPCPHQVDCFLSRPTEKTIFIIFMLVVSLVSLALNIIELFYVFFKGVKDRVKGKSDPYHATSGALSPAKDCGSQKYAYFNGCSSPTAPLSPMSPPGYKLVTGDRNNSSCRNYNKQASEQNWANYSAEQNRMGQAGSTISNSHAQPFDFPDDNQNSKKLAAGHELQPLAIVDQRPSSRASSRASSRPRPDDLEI

CC(=O)c1ccc2c(c1)[C@H](NC(=O)c1ccc(F)c(Cl)c1)[C@H](O)C(C)(C)O2 [Tonabersat, N-[(3S,4S)-6-acetyl-3-hydroxy-2,2-dimethyl-3,4-dihydrochromen-4-yl]-3-chloro-4-fluorobenzamide]
time to block connexin hemichannels [1]: within one minute
hemichannel activity ([1]; after three minutes of washout): some activity returning after washout
hemichannel activity ([1]; during incubation): almost completely abolishes hemichannel activity
difference between CBX and 10 μM Tonabersat in 1 mM Probenecid [2]: 14.9±4%
ATP release, percentage of the injury control ([2]; 0.1 μM Tonabersat in combination with 1 mM Probenecid): 85.9±2.4%
ATP release from hCMVEC cells ([2]; 0.1 μM to 100 μM Tonabersat in the absence of 1 mM Probenecid): did not reduce ATP release
ATP release, percentage of the injury control ([2]; 1 μM Tonabersat in combination with 1 mM Probenecid): 75.9±2.3%
ATP release, percentage of the injury control ([2]; 10 μM Tonabersat in combination with 1 mM Probenecid): 58.5±1.9%
ATP release, percentage of the injury control ([2]; 100 μM Tonabersat in combination with 1 mM Probenecid): 70.5±3.9%
difference in inhibition, 10 μM versus 100 μM Tonabersat ([2]; each with 1 mM Probenecid): 12.1±3.2%
ATP release, percentage of the injury-reperfusion (IR) control [3]: 68.9±6.9%

From patent publication US11401516B2, “Channel modulators” (AUCKLAND UNISERVICES LIMITED, priority 2014, dated 2022)
